Source: ChEMBL document CHEMBL5346877, “A-ring-fused pyrazoles of dihydrotestosterone targeting prostate cancer cells via the downregulation of the androgen receptor” (Eur J Med Chem, 2023)
Active and inactive are the calls of the source. The calls are words filed in the database; no cut-off is given here.

How the values were obtained:
[1] = tested on: LAPC4; test: Inhibition of colony formation in human LAPC4 cells at 10 uM incubated for 10 days by crystal violet staining based assay; assay type: functional; conditions: LAPC4, 240 h, time 10 day
[2] = tested on: LAPC4; test: Inhibition of colony formation in human LAPC4 cells at 5 uM incubated for 10 days by crystal violet staining based assay; assay type: functional, cell-based; conditions: time 10.0 day
[3] = Downregulation of AR protein expression in human LAPC4 cells assessed as AR levels at 10 uM incubated for 24 hrs by immunoblotting analysis; assay type: functional
[4] = tested on: DU-145; test: Cytotoxicity against human DU-145 cells assessed as cell viability at 20 uM incubated for 72 hrs by resazurin dye based microplate reader assay; assay type: functional; conditions: read-out: Activity
[5] = tested on: LAPC4; test: Cytotoxicity against human LAPC4 cells assessed as cell viability at 20 uM incubated for 72 hrs by resazurin dye based microplate reader assay; assay type: functional; conditions: read-out: Activity
[6] = tested on: CWR22R; test: Cytotoxicity against human 22Rv1 cells assessed as cell viability at 20 uM incubated for 72 hrs by resazurin dye based microplate reader assay; assay type: functional; conditions: read-out: Activity

Row | SMILES | inhibition at 10 µM [1] | inhibition [2] | Activity [3] | viability at 20 µM [4] | viability at 20 µM [5] | viability at 20 µM [6]
1 | Cn1nc2c(c1-c1ccco1)C[C@@]1(C)[C@@H](CC[C@@H]3[C@@H]1CC[C@]1(C)C(=O)CC[C@@H]31)C2 | 5% | Active | 97% | 100% | 39% | 43%
2 | C[C@]12Cc3cnn(-c4ccc(F)cc4)c3C[C@@H]1CC[C@@H]1[C@@H]2CC[C@]2(C)[C@@H](O)CC[C@@H]12 | 1% | – | >=100% | 55% | 44% | 57%
3 | COc1ccc(-n2nc3c(c2C)C[C@@]2(C)[C@@H](CC[C@@H]4[C@@H]2CC[C@]2(C)[C@@H](O)CC[C@@H]42)C3)cc1 | 7% | Active | – | 29% | 82% | 54%
4 | CNC(=O)c1ccc(N2C(=S)N(c3ccc(C#N)c(C(F)(F)F)c3)C(=O)C2(C)C)cc1F [ENZALUTAMIDE] | 44% | – | 85% | 96% | 81% | ≥ 100%
5 | Cn1nc2c(c1-c1ccccc1)C[C@@]1(C)[C@@H](CC[C@@H]3[C@@H]1CC[C@]1(C)C(=O)CC[C@@H]31)C2 | 21% | Active | 65% | ≥ 100% | 36% | 68%
6 | C[C@]12CC[C@H](O)CC1=CC[C@@H]1[C@@H]2CC[C@]2(C)C(n3cnc4ccccc43)=CC[C@@H]12 [GALETERONE] | 30% | – | 81% | ≥ 100% | ≥ 76% | 95%
7 | COc1ccc(-c2c3c(nn2C)C[C@@H]2CC[C@@H]4[C@H](CC[C@]5(C)C(=O)CC[C@@H]45)[C@@]2(C)C3)cc1 | 34% | Active | >=100% | 97% | 35% | 58%
8 | Cc1c2c(nn1-c1ccc(Cl)cc1)C[C@@H]1CC[C@@H]3[C@H](CC[C@]4(C)C(=O)CC[C@@H]34)[C@@]1(C)C2 | 16% | Active | – | ≥ 100% | 38% | 75%
9 | Cc1c2c(nn1-c1ccc([N+](=O)[O-])cc1)C[C@@H]1CC[C@@H]3[C@H](CC[C@]4(C)C(=O)CC[C@@H]34)[C@@]1(C)C2 | 26% | Active | – | ≥ 100% | 48% | 57%
10 | Cn1nc2c(c1-c1ccccc1)C[C@@]1(C)[C@@H](CC[C@@H]3[C@@H]1CC[C@]1(C)[C@@H](O)CC[C@@H]31)C2 | 2% | Active | 93% | 100% | 51% | 48%
11 | C[C@]12CC[C@H](O)CC1=CC[C@@H]1[C@@H]2CC[C@]2(C)C(c3cccnc3)=CC[C@@H]12 [ABIRATERONE] | 70% | – | 88% | ≥ 100% | 100% | ≥ 100%
12 | Cn1nc2c(c1-c1ccc(Cl)cc1)C[C@@]1(C)[C@@H](CC[C@@H]3[C@@H]1CC[C@]1(C)C(=O)CC[C@@H]31)C2 | 11% | Active | 67% | 98% | 21% | 61%
13 | Cc1ccc(-c2c3c(nn2C)C[C@@H]2CC[C@@H]4[C@H](CC[C@]5(C)[C@@H](O)CC[C@@H]45)[C@@]2(C)C3)cc1 | 28% | Active | 96% | 98% | 52% | 36%
14 | Cc1c2c(nn1-c1ccccc1)C[C@@H]1CC[C@@H]3[C@H](CC[C@]4(C)C(=O)CC[C@@H]34)[C@@]1(C)C2 | 54% | Active | – | 100% | 87% | 90%
15 | N#Cc1ccc(O[C@H]2CC[C@H](NC(=O)c3ccc(N4CCC(CN5CCN(c6cc7c(cc6F)C(=O)N(C6CCC(=O)NC6=O)C7=O)CC5)CC4)nn3)CC2)cc1Cl (stereo not given in full) [BAVDEGALUTAMIDE] | 7% | – | 14% | 85% | 5% | 96%
16 | Cc1ccc(-n2nc3c(c2C)C[C@@]2(C)[C@@H](CC[C@@H]4[C@@H]2CC[C@]2(C)[C@@H](O)CC[C@@H]42)C3)cc1 | 2% | Active | – | 93% | 88% | 37%

Row | SMILES | inhibition at 10 µM [1] | inhibition [2] | Activity [3] | viability at 20 µM [4] | viability at 20 µM [5] | viability at 20 µM [6]
17 | Cc1ccc(-n2nc3c(c2C)C[C@@]2(C)[C@@H](CC[C@@H]4[C@@H]2CC[C@]2(C)C(=O)CC[C@@H]42)C3)cc1 | 54% | Active | – | ≥ 100% | 87% | 97%
18 | Cc1c2c(nn1-c1ccc(C#N)cc1)C[C@@H]1CC[C@@H]3[C@H](CC[C@]4(C)[C@@H](O)CC[C@@H]34)[C@@]1(C)C2 | 6% | Active | – | 50% | 73% | 43%
19 | COc1ccc(-n2ncc3c2C[C@@H]2CC[C@@H]4[C@H](CC[C@]5(C)[C@@H](O)CC[C@@H]45)[C@@]2(C)C3)cc1 | 0% | – | >=100% | 97% | 43% | 75%
20 | Cc1c2c(nn1-c1ccc(Br)cc1)C[C@@H]1CC[C@@H]3[C@H](CC[C@]4(C)C(=O)CC[C@@H]34)[C@@]1(C)C2 | – | Active | – | – | – | –
21 | Cc1c2c(nn1-c1ccc(Cl)cc1)C[C@@H]1CC[C@@H]3[C@H](CC[C@]4(C)[C@@H](O)CC[C@@H]34)[C@@]1(C)C2 | 4% | Active | – | 107% | 47% | 52%
22 | C[C@]12Cc3cnn(-c4ccc(C#N)cc4)c3C[C@@H]1CC[C@@H]1[C@@H]2CC[C@]2(C)[C@@H](O)CC[C@@H]12 | 12% | – | >=100% | 88% | 65% | 65%
23 | Cc1c2c(nn1-c1ccc(Br)cc1)C[C@@H]1CC[C@@H]3[C@H](CC[C@]4(C)[C@@H](O)CC[C@@H]34)[C@@]1(C)C2 | 5% | Active | – | 89% | 52% | 50%
24 | C[C@]12Cc3cnn(-c4ccc([N+](=O)[O-])cc4)c3C[C@@H]1CC[C@@H]1[C@@H]2CC[C@]2(C)[C@@H](O)CC[C@@H]12 | 15% | – | >=100% | 99% | 40% | 97%
25 | COc1ccc(-n2nc3c(c2C)C[C@@]2(C)[C@@H](CC[C@@H]4[C@@H]2CC[C@]2(C)C(=O)CC[C@@H]42)C3)cc1 | 20% | Active | – | ≥ 100% | 57% | 77%
26 | Cc1c2c(nn1-c1ccc(F)cc1)C[C@@H]1CC[C@@H]3[C@H](CC[C@]4(C)C(=O)CC[C@@H]34)[C@@]1(C)C2 | 15% | Active | – | ≥ 100% | 42% | 75%
27 | Cn1nc2c(c1-c1ccc(Br)cc1)C[C@@]1(C)[C@@H](CC[C@@H]3[C@@H]1CC[C@]1(C)[C@@H](O)CC[C@@H]31)C2 | 16% | Active | 79% | 94% | 42% | 21%
28 | Cc1ccc(-c2c3c(nn2C)C[C@@H]2CC[C@@H]4[C@H](CC[C@]5(C)C(=O)CC[C@@H]45)[C@@]2(C)C3)cc1 | 23% | Active | 92% | ≥ 100% | 34% | 73%
29 | Cn1nc2c(c1-c1ccc(F)cc1)C[C@@]1(C)[C@@H](CC[C@@H]3[C@@H]1CC[C@]1(C)[C@@H](O)CC[C@@H]31)C2 | 16% | Active | 83% | 89% | 44% | 26%
30 | Cc1c2c(nn1-c1ccc([N+](=O)[O-])cc1)C[C@@H]1CC[C@@H]3[C@H](CC[C@]4(C)[C@@H](O)CC[C@@H]34)[C@@]1(C)C2 | 11% | Active | – | 85% | 74% | 58%
31 | C[C@]12Cc3cnn(-c4ccc(Br)cc4)c3C[C@@H]1CC[C@@H]1[C@@H]2CC[C@]2(C)[C@@H](O)CC[C@@H]12 | 1% | – | >=100% | 100% | 58% | 62%
32 | C[C@]12Cc3c(nn(-c4ccccc4)c3-c3ccccc3)C[C@@H]1CC[C@@H]1[C@@H]2CC[C@]2(C)[C@@H](O)CC[C@@H]12 | ≥ 100% | – | >=100% | 12% | 72% | 47%
